Publication PMC5469811, “Identification of GXXXXG motif in Chrysophsin-1 and its implication in the design of analogs with cell-selective antimicrobial and anti-endotoxin activities” (Scientific Reports, 2017)
In brackets after ≈: the same amount, converted by molar mass. Residues, ends and D or L forms follow the SMILES beside them.

Legend:
[1] = test system: Bacillus subtilis (ATCC 6633); test: microbe, parasite or virus in culture; format: cell-based; details: ATCC 6633; read-out: Minimum inhibitory concentration (MIC)
Procedure: (§1) Antibacterial assay against various Gram-positive and Gram-negative strains of bacteria was performed by the serial two-fold dilution method according to the previously reported procedure, [36]. The antibacterial assays were repeated thrice and the averages of these MIC values were reported.

[2] = test system: Escherichia coli (ATCC 25922); test: microbe, parasite or virus in culture; format: cell-based; details: ATCC 25922; read-out: Minimum inhibitory concentration (MIC)
Procedure: as §1

[3] = test system: Escherichia coli (ATCC 9637); test: microbe, parasite or virus in culture; format: cell-based; details: ATCC 9637; read-out: Minimum inhibitory concentration (MIC)
Procedure: as §1

[4] = test system: Klebsiella pneumoniae (ATCC 27736); test: microbe, parasite or virus in culture; format: cell-based; details: ATCC 27736; read-out: Minimum inhibitory concentration (MIC)
Procedure: as §1

[5] = test system: Pseudomonas aeruginosa (ATCC BAA-427); test: microbe, parasite or virus in culture; format: cell-based; details: ATCC BAA-427; read-out: Minimum inhibitory concentration (MIC)
Procedure: as §1

[6] = test system: Staphylococcus aureus (ATCC 25923); test: microbe, parasite or virus in culture; format: cell-based; details: ATCC 25923; read-out: Minimum inhibitory concentration (MIC)
Procedure: as §1

[7] = test system: Staphylococcus aureus (ATCC 29213); test: microbe, parasite or virus in culture; format: cell-based; details: ATCC 29213; read-out: Minimum inhibitory concentration (MIC)
Procedure: as §1

[8] = test system: Staphylococcus aureus (ATCC 33592) Methicillin resistant Genatmicin resistant; test: microbe, parasite or virus in culture; format: cell-based; details: ATCC 33592; read-out: Minimum inhibitory concentration (MIC)
Procedure: as §1

[9] = test system: Staphylococcus aureus (ATCC 700698 MRSA); test: microbe, parasite or virus in culture; format: cell-based; details: ATCC 700698; read-out: Minimum inhibitory concentration (MIC)
Procedure: as §1

[10] = test system: Staphylococcus aureus (ATCC 700699 MRSA); test: microbe, parasite or virus in culture; format: cell-based; details: ATCC 700699; read-out: Minimum inhibitory concentration (MIC)
Procedure: as §1

[11] = test system: Staphylococcus aureus (BAA-44)MDR; test: microbe, parasite or virus in culture; format: cell-based; details: BAA-44; read-out: Minimum inhibitory concentration (MIC)
Procedure: as §1

[12] = test system: Candida albicans (ATCC 10231); test: microbe, parasite or virus in culture; format: cell-based; details: ATCC 10231, 48 h; read-out: Minimum inhibitory concentration (MIC)
Procedure: (§2) The anti- fungal activity of peptides was performed according to the standard micro broth dilution technique as per NCCLS guidelines. These plates were incubated in a moist chamber at 35 °C, and an absorbance at 492 nm was recorded on a VersaMax microplate reader after 48 h for C. albicans ATCC 10231 and C. parapsilosis ATCC 22019 and 72 h for C. neoformans.

[13] = test system: Candida parapsilosis (ATCC 22019); test: microbe, parasite or virus in culture; format: cell-based; details: ATCC 22019, 48 h; read-out: Minimum inhibitory concentration (MIC)
Procedure: as §2

Cryptococcus neoformans = test: microbe, parasite or virus in culture; format: cell-based; details: 72 h; read-out: Minimum inhibitory concentration (MIC)
Procedure: as §2

[14] = test system: Sporothrix schenckii (Patient isolates); test: microbe, parasite or virus in culture; format: cell-based; details: 48 h; read-out: Minimum inhibitory concentration (MIC)
E. coli (ATCC 25922) = format: cell-based, Escherichia coli; details: ATCC 25922, 1 h
Procedure: (§3) E. coli ATCC25922 was grown to 10^6 CFU/ml in fresh MH broth with various divalent and monovalent salts at their physiological concentrations. Serial dilutions of chrysophsin-1 and its variants prepared with the same MH broth were added to the E. coli ATCC 25922 suspensions. The bacteria were incubated at 37 °C in a shaking incubator for 18 h and the MIC values of individual peptides against E. coli ATCC 25922 were determined. Thermal tolerance of Chrysophsin-1 and its variants was checked by incubating the peptides at 4 °C, 60 °C and 90 °C for 1 h prior to MIC determination. The antibacterial activity in presence of serum was carried out by adding a final concentration of 10% fetal bovine serum in the assay diluents containing 0.4% BSA, 0.02% glacial acetic acid. The subsequent steps in both the experiments were consistent with the MIC determination method.

E. coli ATCC 25922 [15] = format: cell-based, Escherichia coli; details: ATCC 25922, 18 h
Procedure: as §3

S. aureus (ATCC 25923) = format: cell-based, Staphylococcus aureus; details: ATCC 25923, 1 h
Procedure: as §3

E. coli ATCC 25922 [16] = test: Synergy with conventional antibiotics, checkerboard titration; format: cell-based, Escherichia coli
Procedure: The checkerboard titration method was followed to check the synergy of peptides with other antibiotics. First, 2-fold serial dilutions of the antibiotics and antimicrobial peptides were prepared. Subsequently, 50 μl each of different concentrations of antibiotics and of antimicrobial peptides was mixed and added into 100 μl of log phase bacteria culture in a 96-well plate. The plates were then incubated at 37 °C for 24 h. The fractional inhibitory concentration (FIC) index (FICI) was calculated as follows[39]: FICI=(MICofdrugAincombination)/(MICofdrugAalone)+(MICofdrugBincombination)/(MICofdrugB): FICI < 0.5 is considered to indicate synergy; 0.5 < FICI < 1.0 is considered additive; 1.0 < FICI < 4.0 is considered indifferent; and FICI > 4.0 is considered antagonism.

CC[C@H](C)[C@H](NC(=O)[C@H](C)NC(=O)CNC(=O)[C@H](CCCCN)NC(=O)[C@@H](NC(=O)[C@H](CC(C)C)NC(=O)[C@H](Cc1c[nH]c2ccccc12)NC(=O)CNC(=O)[C@H](Cc1ccccc1)NC(=O)[C@@H](N)Cc1ccccc1)[C@@H](C)CC)C(=O)N[C@@H](Cc1c[nH]cn1)C(=O)N[C@@H](C)C(=O)N1CCC[C@H]1C(=O)N[C@@H](CCCCN)C(=O)N[C@@H](C)C(=O)N[C@H](C(=O)N[C@@H](Cc1c[nH]cn1)C(=O)N1CCC[C@H]1C(=O)N[C@@H](CC(C)C)C(=O)N[C@H](C(=O)N[C@@H](Cc1c[nH]cn1)C(=O)N[C@@H](CCCNC(=N)N)C(=O)N[C@@H](CCCNC(=N)N)C(=O)N[C@@H](CCCNC(=N)N)C(=O)N[C@@H](Cc1c[nH]cn1)C(N)=O)[C@@H](C)CC)[C@@H](C)CC [G13,18P-Chr-1] (H-FFGWLIKGAIHAPKAIHPLIHRRRH-NH2; N-terminus and C-terminus assumed)
MIC [1]: 3 µM (≈ 8.91 µg/mL) | MIC [2]: 4 µM (≈ 11.9 µg/mL) | MIC [3]: 6.8 µM (≈ 20.2 µg/mL) | MIC [4]: 27.2 µM (≈ 80.8 µg/mL) | MIC [5]: 13.6 µM (≈ 40.4 µg/mL) | MIC [6]: 3 µM (≈ 8.91 µg/mL) | MIC [7]: 3 µM (≈ 8.91 µg/mL) | MIC [8]: 1.6 µM (≈ 4.75 µg/mL) | MIC [9]: 3 µM (≈ 8.91 µg/mL) | MIC [10]: 3 µM (≈ 8.91 µg/mL) | MIC [11]: 3 µM (≈ 8.91 µg/mL) | MIC [12]: >30 µM | MIC [13]: >30 µM | MIC (Cryptococcus neoformans): >30 µM | MIC [14]: >30 µM | Antibacterial activity (MIC) after incubating peptide at 4 °C (E. coli (ATCC 25922)): 4 µM | Antibacterial activity (MIC) after incubating peptide at 60 °C (E. coli (ATCC 25922)): 14 µM | Antibacterial activity (MIC) after incubating peptide at 90 °C (E. coli (ATCC 25922)): 17.2 µM | Antibacterial activity (MIC) in the presence of 10% FBS (E. coli ATCC 25922 [15]): >33 µM | Antibacterial activity (MIC) in the presence of FeCl3 (E. coli ATCC 25922 [15]): 26 µM | Antibacterial activity (MIC) in the presence of KCl (E. coli ATCC 25922 [15]): 6 µM | Antibacterial activity (MIC) in the presence of MgCl2 (E. coli ATCC 25922 [15]): 20 µM | Antibacterial activity (MIC) in the presence of NH4Cl (E. coli ATCC 25922 [15]): 5 µM | Antibacterial activity (MIC) in the presence of NaCl (E. coli ATCC 25922 [15]): 20 µM | Antibacterial activity (MIC) in the presence of ZnCl2 (E. coli ATCC 25922 [15]): 12 µM | Antibacterial activity (MIC) after incubating peptide at 4 °C (S. aureus (ATCC 25923)): 3 µM | Antibacterial activity (MIC) after incubating peptide at 60 °C (S. aureus (ATCC 25923)): >33 µM | Antibacterial activity (MIC) after incubating peptide at 90 °C (S. aureus (ATCC 25923)): >33 µM | interaction of peptide with chloramphenicol (by FICI) (E. coli ATCC 25922 [16]): additivity
